According to patent US8124655B2, “Use of LR-90 and LR-102 to overcome insulin resistance” (City of Hope, priority 2007, dated 2012):

Experiments:
[1] = system: Zucker diabetic fatty rats (ZDF, fa/fa); assay: Kidney histology, gene and protein expression and lipid peroxidation (Example 2); type: in vivo, rat
Experimental: FIG. 9. Representative photomicrographs of immunohistochemicals stainings of kidney tissues. A. Periodic Acid-Metheamine Silver (PAMS); B, Masson'S Trichrome; C, AGE; and D, RAGE stainings of kidneys from lean, ZDF and LR-90 treated ZDF rats.
FIG. 10. mRNA expression of TGF-B1, CTGF, fibronectin and RAGE in the kidney cortex. Renal cortices from each treatment group were analyzed by for TGF-B1, CTGF, fibronectin and RAGE gene expression by RT-PCR. A. Representative gel profiles; B, Quantitative results of band densities. 18s/18 sII were used as internal controls.
FIG. 11. Protein expression of TGF-B1 and CTGF in the kidney cortex. Renal cortices from each treatment group were analyzed by for TGF-B1 and CTGF protein expression by Western blotting and immunostaining with specific antibodies. Representative gel profiles and densiitometric quantitation of protein bands. *P<0.01 vs. lean, **P<0.01 vs. ZDF
FIG. 12. Representative immunohistochemical staining for TGF-B1 and CTGF in the kidney cortex. Renal cortices from each treatment group were probed with specific antibodies against TGF-β1 and CTGF.
FIG. 13. Effect of LR-90 on kidney lipid peroxidaton. A. Kidney lipid peroxides were analyzed by measuring malondialdehyde (MDA) in tissue homogenates using the TBARS method. B. Correlation of lipid peroxidation with urinary albumin excretion rates. *P<0.05 vs. ZDF, **P<0.01 vs. ZDF.
The present Example presents the results of an investigation of the effects of LR-90, an inhibitor of AGE/ALE formation, in male Zucker diabetic fatty rats (ZDF, fa/fa) fed with Purina 5008 diet until 40 weeks of age, and their hetorozygous lean littermates (ZDF fa/+) as non-hyperglycemic controls. LR-90 at 50 mg/L of drinking water was given to a subgroup of ZDF rats after the rats developed spontaneous diabetes at 13 weeks of age. At 40 weeks of age, and before killing the animals, their weight was measured; HbA1c, plasma glucose, insulin, triglycerides, cholesterol, CRP and urinary albumin and creatinine concentrations were measured. After euthanizing all animals, organs such as the kidneys, eyeballs, liver, heart, aortae and pancreas were dissected and subjected to immunohistochemical staining, RT-PCR, Western blotting and microscopy.

[2] = system: Zucker diabetic fatty (ZDF) rat; assay: Kidney histopathology: PAMS and Masson's trichrome staining; type: in vivo; conditions: kidney of ZDF rats, p<0.01 vs ZDF
Excerpt: Kidney sections were stained with periodic acid-Schiff-methenamine silver (PAMS) to evaluate glomerulosclerosis and mesangial matrix expansion; Masson's trichrome staining was used to analyse collagen deposition and cortical tubule degeneration. Glomerulosclerosis was defined as glomerular basement membrane thickening, mesangial hypertrophy and capillary occlusion, and was semiquantitatively evaluated on an arbitrary scale of 0 to 4: grade 0 (normal); grade 1 (sclerotic area less than 25%); grade 2 (sclerotic area 25-50%); grade 3 (sclerotic area 50-75%); and grade 4 (sclerotic area more than 75%). The glomerulosclerotic index was then calculated as described. Briefly, 100 glomeruli were randomly chosen from each rat kidney stained with PAMS and carefully scored for sclerosis by two blinded investigators. This was done in a sequential manner to ensure that the same glomerulus was not graded twice. To quantify for mesangial expansion and ECM accumulation in the mesangial areas, PAMS-positive materials in the mesangial region excluding cellular elements were analysed using an image analyser with a microscope (Olympus AX70; Olympus Optical, Hamburg, Germany) and photographed using a Retiga 2000R CCD camera (Qimaging, Surrey, BC, Canada). Twenty glomeruli, randomly selected from each rat were evaluated by two investigators without knowledge of the origin of the slides. The percentage of PAMS-positive area in each glomerulus was analysed using Image Pro Plus (Media Cybernetics, Silver Spring, Mass., USA). Results were expressed as percentage of areas positive for PAMS staining. To evaluate cortical tubule degeneration and collagen deposition, kidney sections were stained withMasson's trichrome. In each section, six fields of kidney cortex were randomly selected at 100× magnification using an Olympus AX70 microscope, photographed using a Retiga 2000R camera and the images analysed by Image Pro Plus. Blue and red colours indicate collagen and cytoplasm staining, respectively. Degenerate tubules in each field were identified by the absence of cytoplasm and results expressed as number of degenerate tubules per field. For quantitative measurement of collagen deposition, positively stained areas from six random regions in each slide were identified and scored by dividing the positively stained areas by the total tissue area in the same field using the colour separation function of Image Pro Plus. Results were expressed as percentage of area with positive staining.

[3] = described in U.S. Pat. No. 6,787,566; cited from earlier work
3T3 adipocytes = assay: FFA uptake and glucose uptake in 3T3 adipocytes; type: cell-based; conditions: FIG. 14
Excerpt: FIG. 14. Effect of LR-90 on 3T3 adipocytes. Tissue culture data on 3T3 adipocytes, showing free fatty acid (FFA) uptake and glucose uptake improvements upon contact with LR-90.
The present Example, with reference to FIG. 14, provides tissue culture data on 3T3 adipocytes, showing free fatty acid (FFA) uptake and glucose uptake improvements upon contact with LR-90.

Compound: CC(C)(Oc1ccc(NC(=O)Nc2ccc(Cc3ccc(NC(=O)Nc4ccc(OC(C)(C)C(=O)O)cc4)c(Cl)c3)cc2Cl)cc1)C(=O)O [LR-90, methylene bis[4,4′-(2-chlorophenylureidophenoxyisobutyric acid)]]
- reduction of kidney lipid peroxidation ([1]; ZDF animals, MDA by TBARS, Example 2): ~40%
- glomerulosclerosis, tubular degeneration and collagen deposition ([1]; kidney of ZDF rats, FIGS. 9a and b): prevented
- renal AGE and RAGE accumulation ([1]; kidney of ZDF rats, FIGS. 9c and d): reduced
- TGF-β1 and CTGF gene and protein expression, fibronectin and RAGE mRNA ([1]; kidneys of ZDF rats, FIGS. 10, 11 and 12): significantly attenuated
- quantitative scoring for PAMS staining ([2]; FIG. 1c): reduced significantly
- tubular degeneration ([2]; FIG. 1e): reduced significantly
- percentage positive collagen area staining ([2]; FIG. 1f): reduced significantly
- glomerulosclerosis index (GSI) ([2]; FIG. 1d): reduced significantly
- breaking AGE-protein cross-links [3]: active
- free fatty acid (FFA) uptake (3T3 adipocytes): improvements
- glucose uptake (3T3 adipocytes): improvements
